Test results: US9963467B2, “Boronic acid derivatives and therapeutic uses thereof” (Rempex Pharmaceuticals, Inc., priority 2014, dated 2018)

Key:
ec302 (TEM-10) [1] = test: Tigemonam potentiation (MPC@4), ec302; type: cell-based
SHV-12 = SHV-12 (Klebsiella pneumoniae, UniProt P0AD64, E235K/G234S/L31Q); test: Ki, nitrocefin cleavage by purified enzyme, SHV-12; type: biochemical; conditions: nitrocefin reporter substrate; read-out: Ki (SHV-12, NCF)
Summary of the method: (§1)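 Readout: nitrocefin hydrolysis, A490 recorded every 10 sec over 10 min. Enzyme and inhibitor (varied concentrations) preincubated 10 min, RT, in reaction buffer before substrate addition.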

EC1010 (CMY-6) [2] = test: Tigemonam potentiation (MPC@4), EC1010; type: cell-based; conditions: BLI with tigemonam at 4 μg/mL
[3] = Monomer content of pH adjusted aqueous solutions (LC-UV); type: physicochemical; conditions: 1 mg/mL aqueous salt solution, pH adjusted to 7.6 to 8, LC-UV
Procedure: Boronic acid containing compounds are known to undergo oligomerization. The presence of oligomers can greatly complicate drug development, as they represent new chemical species whose content must be controlled and qualified by testing in toxoicology studies. The monomer content of compounds was evaluated by adjusting aqueous solutions to physiological pH at various concentrations. The monomer content of pH adjusted solutions was measured using LC-UV. Test compounds were weighed out into a 1.5 mL Eppendorf tube. A solution of water was prepared in 1.00 mg/mL, 10.0 mg/mL or 100 mg/mL concentrations of the compound based on active fraction. A volume 20 uL was subtracted to allow room for addition of acid or base to adjust pH. The solution pH was measured. The pH was then adjusted through addition of acid or base as necessary until the reading was in the 7.6 to 8 range. A final pH measurement was made after ensuring all the compound was in solution. The solution was injected onto LC-UV in 0.1 uL to 5 uL volume within less than half an hour after the time the sample was prepared. Elution was done using 0.1% TFA in water for mobile phase A and 0.085% TFA in methanol for mobile phase B on an Excel ACE 5 Super C18 2.1×100 mm column at 0.6 ml/min flow rate with 9 min gradient, 3.9 minute hold at 90% B and 18 minute run time. The absorption was measured at 220, 254 and 300 nm with a 4 nm bandwidth.

ec302 (TEM-10) [4] = test: Aztreonam potentiation (MPC@4), ec302; type: cell-based; conditions: BLI with aztreonam at 4 μg/mL
EC1010 (CMY-6) [5] = test: organism not typed; type: cell-based
KP1005 (CTX-M-14) = test: Tigemonam potentiation (MPC@4), KP1005; type: cell-based; conditions: BLI with tigemonam at 4 μg/mL
ECL1002 [6] = test: Aztreonam potentiation (MPC@4), ECL1002; type: cell-based; conditions: BLI with aztreonam at 4 μg/mL
KP1009 (CTX-M-15) = test: Tigemonam potentiation (MPC@4), KP1009; type: cell-based; conditions: BLI with tigemonam at 4 μg/mL
Pa AmpC = Pa AmpC (Pseudomonas aeruginosa, UniProt P24735); test: Ki, nitrocefin cleavage by purified enzyme, Pa AmpC; type: biochemical; conditions: nitrocefin reporter substrate; read-out: Ki (Pa AmpC, NCF)
Summary of the method: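 Purified enzymes are exposed to inhibitor concentrations in reaction buffer for 10 min at room temperature. Nitrocefin is then added. Cleavage is read at 490 nm every 10 sec for 10 min, giving Ki.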

KP1010 (SHV-12) = test: Tigemonam potentiation (MPC@4), KP1010; type: cell-based
ECL1002 [7] = test: Tigemonam potentiation (MPC@4), ECL1002; type: cell-based; conditions: BLI with tigemonam at 4 μg/mL
ec308 (SHV-5) = test: Tigemonam potentiation (MPC@4), ec308; type: cell-based
P99 = P99 (Enterobacter cloacae, UniProt P05364); test: Ki, nitrocefin cleavage by purified enzyme, P99; type: biochemical; conditions: nitrocefin reporter substrate; read-out: Ki (P99, NCF)
Summary of the method: as §1

OXA-48 = OXA-48 (Klebsiella pneumoniae, UniProt Q6XEC0); test: Ki, nitrocefin cleavage by purified enzyme, OXA-48; type: biochemical; conditions: nitrocefin reporter substrate; read-out: Ki (OXA-48, NCF)
Summary of the method: as §1

KPC-2 = KPC-2 (Klebsiella pneumoniae, UniProt Q9F663); test: Ki, nitrocefin cleavage by purified enzyme, KPC-2; type: biochemical; conditions: nitrocefin reporter substrate; read-out: Ki (KPC-2, NCF)
Summary of the method: as §1

KP1086 (OXA-48) = test: Biapenem potentiation (MPC@1), KP1086; conditions: BLI with biapenem at 1 μg/mL
KP1004 (KPC-2) [8] = test: Biapenem potentiation (MPC@1), KP1004; conditions: BLI with biapenem at 1 μg/mL
CTX-M-14 = CTX-M-14 (Escherichia coli, UniProt Q9L5C7); test: Ki, nitrocefin cleavage by purified enzyme, CTX-M-14; type: biochemical; conditions: nitrocefin reporter substrate; read-out: Ki (CTX-M-14, NCF)
Summary of the method: as §1

KP1004 (KPC-2) [9] = test: Aztreonam potentiation (MPC@4), KP1004; type: cell-based; conditions: BLI with aztreonam at 4 μg/mL

Chain of Pa AmpC (P24735 27-397): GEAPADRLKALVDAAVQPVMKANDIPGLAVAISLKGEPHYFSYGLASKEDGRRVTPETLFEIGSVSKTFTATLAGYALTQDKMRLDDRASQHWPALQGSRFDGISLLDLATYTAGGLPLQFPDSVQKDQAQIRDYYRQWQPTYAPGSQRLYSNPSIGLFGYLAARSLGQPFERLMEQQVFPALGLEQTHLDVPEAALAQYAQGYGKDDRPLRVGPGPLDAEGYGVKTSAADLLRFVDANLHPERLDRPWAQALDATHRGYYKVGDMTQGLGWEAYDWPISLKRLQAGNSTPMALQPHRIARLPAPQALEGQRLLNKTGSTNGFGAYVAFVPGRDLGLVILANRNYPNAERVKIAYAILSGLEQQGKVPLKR
Chain of P99 (P05364 21-381): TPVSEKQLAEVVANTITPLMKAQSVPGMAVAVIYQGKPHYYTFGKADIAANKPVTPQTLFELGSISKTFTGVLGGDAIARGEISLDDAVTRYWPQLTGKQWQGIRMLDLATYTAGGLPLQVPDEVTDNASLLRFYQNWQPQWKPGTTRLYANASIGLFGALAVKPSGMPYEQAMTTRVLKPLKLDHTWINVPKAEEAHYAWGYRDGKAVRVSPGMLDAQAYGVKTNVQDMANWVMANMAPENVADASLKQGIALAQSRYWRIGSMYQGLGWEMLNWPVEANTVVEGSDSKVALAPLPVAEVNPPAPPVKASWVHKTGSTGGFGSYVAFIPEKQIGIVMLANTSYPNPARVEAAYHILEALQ
Chain of CTX-M-14 (Q9L5C7 29-291): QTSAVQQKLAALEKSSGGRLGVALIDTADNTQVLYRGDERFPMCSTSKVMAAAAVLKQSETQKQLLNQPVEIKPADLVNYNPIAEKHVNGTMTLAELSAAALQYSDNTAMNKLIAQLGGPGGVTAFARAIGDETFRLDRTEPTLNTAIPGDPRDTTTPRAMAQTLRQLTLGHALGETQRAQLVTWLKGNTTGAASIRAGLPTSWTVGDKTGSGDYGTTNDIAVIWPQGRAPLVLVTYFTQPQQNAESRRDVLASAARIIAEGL
Chain of KPC-2 (Q9F663 25-293, looked up, species assumed): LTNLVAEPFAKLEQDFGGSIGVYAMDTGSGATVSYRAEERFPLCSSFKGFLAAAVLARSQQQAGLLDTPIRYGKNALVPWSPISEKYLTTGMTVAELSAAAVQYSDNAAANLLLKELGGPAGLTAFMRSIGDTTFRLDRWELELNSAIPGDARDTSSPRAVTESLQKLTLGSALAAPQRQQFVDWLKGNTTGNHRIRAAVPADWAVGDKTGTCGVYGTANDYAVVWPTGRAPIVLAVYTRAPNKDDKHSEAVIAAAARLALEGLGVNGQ
Chain of OXA-48 (Q6XEC0 23-265, looked up, species assumed): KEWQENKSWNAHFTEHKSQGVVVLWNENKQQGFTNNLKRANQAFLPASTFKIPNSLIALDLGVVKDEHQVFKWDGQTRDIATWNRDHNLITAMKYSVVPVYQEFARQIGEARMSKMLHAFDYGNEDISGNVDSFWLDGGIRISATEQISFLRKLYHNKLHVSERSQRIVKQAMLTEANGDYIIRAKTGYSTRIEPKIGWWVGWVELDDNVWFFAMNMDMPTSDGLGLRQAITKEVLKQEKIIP
Chain of SHV-12 (P0AD64 22-286 L31Q/G234S/E235K): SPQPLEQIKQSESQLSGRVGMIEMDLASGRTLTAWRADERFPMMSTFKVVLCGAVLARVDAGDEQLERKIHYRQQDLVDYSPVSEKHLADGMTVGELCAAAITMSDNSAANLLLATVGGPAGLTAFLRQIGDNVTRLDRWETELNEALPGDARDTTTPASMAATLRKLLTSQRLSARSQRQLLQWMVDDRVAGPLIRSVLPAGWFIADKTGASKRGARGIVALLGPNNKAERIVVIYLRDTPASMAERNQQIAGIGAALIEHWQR

SMILES | TIG MPC4 TEM-10 ec302 (ec302 (TEM-10) [1]) | Ki (SHV-12) [nM] | TIG MPC4 CMY-6 EC1010 (EC1010 (CMY-6) [2]) | % Monomer in 1 mg/mL salt solution [3] [%] | AZT MPC4 TEM-10 ec302 (ec302 (TEM-10) [4]) | AZT MPC4 CMY-6 EC1010 (EC1010 (CMY-6) [5]) | TIG MPC4 CTX-M-14 KP1005 (KP1005 (CTX-M-14)) | AZT MPC4 ECL1002 (ECL1002 [6]) | TIG MPC4 CTX-M-15 KP1009 (KP1009 (CTX-M-15)) | Ki (Pa AmpC) [nM] | TIG MPC4 SHV-12 KP1010 (KP1010 (SHV-12)) | TIG MPC4 ECL1002 (ECL1002 [7]) | TIG MPC4 SHV-5 ec308 (ec308 (SHV-5)) | Ki (P99) [nM] | Ki (OXA-48) [nM] | Ki (KPC-2) [nM] | BPM MPC1 OXA-48 KP1086 (KP1086 (OXA-48)) | BPM MPC1 KP1004 KPC-2 (KP1004 (KPC-2) [8]) | Ki (CTX-M-14) [nM] | AZT MPC4 KPC-2 KP1004 (KP1004 (KPC-2) [9])
NC(=O)CC(=O)N[C@H]1Cc2ccc(F)c(C(=O)O)c2OB1O [Compound 5, (R)-3-(3-amino-3-oxopropanamido)-7-fluoro-2-hydroxy-3,4-dihydro-2H-benzo[e][1,2]oxaborinine-8-carboxylic acid] | Z (key: X: MIC of less than 1 ng/mL; Y: MIC of 1 μg/mL to 10 μg/mL; Z: MIC of greater than 10 μg/mL) | < 1 | X (MIC of less than 1 μg/mL) | 98.5 | Y (MIC of 1 μg/mL to 10 μg/mL) | Y (key: X: MIC of less than 1 ng/mL; Y: MIC of 1 μg/mL to 10 μg/mL; Z: MIC of greater than 10 μg/mL) | Y (MIC of 1 μg/mL to 10 μg/mL) | Y (MIC of 1 μg/mL to 10 μg/mL) | X (MIC of less than 1 μg/mL) | > 10 | X (key: X: MIC of less than 1 μg/mL; Y: MIC of 1 μg/mL to 10 μg/mL; Z: MIC of greater than 10 μg/mL) | X (MIC of less than 1 μg/mL) | X (key: X: MIC of less than 1 μg/mL; Y: MIC of 1 μg/mL to 10 μg/mL; Z: MIC of greater than 10 μg/mL) | > 10 | < 1 | > 10 | Y (MIC of 1 μg/mL to 10 μg/mL) | X (MIC of less than 1 μg/mL) | < 1 | –
CNC(=O)CC(=O)N[C@H]1Cc2ccc(F)c(C(=O)O)c2OB1O [Compound 7, (R)-7-fluoro-2-hydroxy-3-(3-(methylamino)-3-oxopropanamido)-3,4-dihydro-2H-benzo[e][1,2]oxaborinine-8-carboxylic acid] | Z (key: X: MIC of less than 1 ng/mL; Y: MIC of 1 μg/mL to 10 μg/mL; Z: MIC of greater than 10 μg/mL) | < 1 | X (MIC of less than 1 μg/mL) | 97.1 | Y (MIC of 1 μg/mL to 10 μg/mL) | Y (key: X: MIC of less than 1 ng/mL; Y: MIC of 1 μg/mL to 10 μg/mL; Z: MIC of greater than 10 μg/mL) | Y (MIC of 1 μg/mL to 10 μg/mL) | Y (MIC of 1 μg/mL to 10 μg/mL) | X (MIC of less than 1 μg/mL) | > 10 | X (key: X: MIC of less than 1 μg/mL; Y: MIC of 1 μg/mL to 10 μg/mL; Z: MIC of greater than 10 μg/mL) | X (MIC of less than 1 μg/mL) | X (key: X: MIC of less than 1 μg/mL; Y: MIC of 1 μg/mL to 10 μg/mL; Z: MIC of greater than 10 μg/mL) | > 10 | 1 to 10 | > 10 | Y (MIC of 1 μg/mL to 10 μg/mL) | X (MIC of less than 1 μg/mL) | < 1 | –
CSCC(=O)N[C@H]1Cc2cc(F)c(F)c(C(=O)O)c2OB1O [Compound 36, (R)-6,7-difluoro-2-hydroxy-3-(2-(methylthio)acetamido)-3,4-dihydro-2H-benzo[e][1,2]oxaborinine-8-carboxylic acid] | Y (key: X: MIC of less than 1 ng/mL; Y: MIC of 1 μg/mL to 10 μg/mL; Z: MIC of greater than 10 μg/mL) | < 1 | X (MIC of less than 1 μg/mL) | – | Y (MIC of 1 μg/mL to 10 μg/mL) | Y (key: X: MIC of less than 1 ng/mL; Y: MIC of 1 μg/mL to 10 μg/mL; Z: MIC of greater than 10 μg/mL) | X (MIC of less than 1 μg/mL) | Y (MIC of 1 μg/mL to 10 μg/mL) | X (MIC of less than 1 μg/mL) | > 10 | X (key: X: MIC of less than 1 μg/mL; Y: MIC of 1 μg/mL to 10 μg/mL; Z: MIC of greater than 10 μg/mL) | X (MIC of less than 1 μg/mL) | X (key: X: MIC of less than 1 μg/mL; Y: MIC of 1 μg/mL to 10 μg/mL; Z: MIC of greater than 10 μg/mL) | > 10 | < 1 | > 10 | Y (MIC of 1 μg/mL to 10 μg/mL) | X (MIC of less than 1 μg/mL) | < 1 | Y (MIC of 1 μg/mL to 10 μg/mL)
